These results are taken from the RepoRT retention time repository (doi:10.1021/es4044374).

The structures appear in SMILES notation.

The nature of the data set: RP, Waters XBridge C18, 50 × 2.1 mm, 3.5 µm, 30 °C, 0.2 mL/min, estimated dead time 0.55 min; A: water + 0.1% formic acid, pH 3; B: methanol + 0.1% formic acid, pH 3; gradient (min/%B) 0/10 4/50 17/95 25/95 25.1/10 30/10. The conditions noted are these: stereoisomer not certain.

`CCC1OC(=O)C(C)C(OC2CC(C)(OC)C(O)C(C)O2)C(C)C(OC2OC(C)CC(N(C)C)C2O)C(C)(O)CC(C)C(=NOCOCCOC)C(C)C(O)C1(C)O` (stereo unspecified) [Roxithromycin]: the LC retention time was 10.1 min.

`CCCCCCCCn1sccc1=O` [2-Octyl-3(2H)-isothiazolone]: the LC retention time was 11.6 min.

Regarding `CCNc1nc(NC(C)CC)nc(OC)n1` (stereo unspecified) [Secbumeton], the LC retention time was 6.7 min.

In the case of `CC(C)(C)c1n[nH]c(=O)n(N)c1=O` [Metribuzin-diketo], the LC retention time is 5.9 min.

On to `CNC(=C[N+](=O)[O-])NCCSCc1ccc(C[N+](C)(C)[O-])o1` [Ranitidine N-oxide], for which the LC retention time is 2.4 min.

As to `Cn1c(=O)c2c(ncn2C)n(C)c1=O` [Caffeine], the LC retention time is 4 min.

For the compound `O=C(Nc1ccc(Cl)cc1)Nc1ccc(Cl)c(Cl)c1` [Triclocarban], the LC retention time was 14.8 min.

Take `O=C(O)C=C(F)C(F)(F)C(F)(F)C(F)(F)C(F)(F)C(F)(F)C(F)(F)C(F)(F)F` [8:2 fluorotelomer unsaturated carboxylic acid]: the LC retention time was 16.1 min.

As to `CC(=O)Nc1ccc(O)cc1` [Paracetamol], the LC retention time is 2.2 min.

As to `COCC(C)N(C(=O)C(=O)O)c1c(C)csc1C` (stereo unspecified) [Dimethenamid OXA], the LC retention time was 7.5 min.

For the compound `CCCN(CCOc1c(Cl)cc(Cl)cc1Cl)C(=O)n1ccnc1` [Prochloraz], the LC retention time is 12.2 min.

In the case of `O=C1CCC2(O)C3Cc4ccc(O)c5c4C2(CCN3CC2CC2)C1O5` (stereo unspecified) [Naltrexone], the LC retention time was 3.1 min.

Turning to `COC(=O)c1ccccc1S(N)(=O)=O` [2-Aminosulfonyl-benzoic acid methyl ester], the LC retention time is 4.5 min.

In the case of `CC(=O)Nc1ccc(S(=O)(=O)Nc2ncccn2)cc1` [N4-Acetylsulfadiazine], the LC retention time was 3.6 min.

Take `COc1ccc(C(=CC(=O)N2CCOCC2)c2ccc(Cl)cc2)cc1OC` [Dimethomorph]: the LC retention time is 10.8 min.

In the case of `CCOP(=S)(OCC)Oc1cc(C)nc(C(C)C)n1` [Diazinon], the LC retention time was 13 min.

As for `O=C(O)Cc1ccccc1Nc1c(Cl)cccc1Cl` [Diclofenac], the LC retention time was 12.8 min.

`CCc1cccc(C)c1N(C(=O)CS(=O)(=O)O)C(C)COC` (stereo unspecified) [Metolachlor ESA]: the LC retention time is 7.8 min.

Turning to `OC(Cn1cncn1)(Cn1cncn1)c1ccc(F)cc1F` [Fluconazole], the LC retention time was 5.3 min.

In the case of `CNC(C)C(=O)c1ccc(C)cc1` (stereo unspecified) [Mephedrone], the LC retention time is 4.3 min.

As to `O=C(O)C(F)(F)C(F)(F)C(F)(F)C(F)(F)C(F)(F)C(F)(F)C(F)(F)C(F)(F)F` [Perfluorononanoic acid], the LC retention time was 13.9 min.

For the compound `O=C(O)C(F)(F)C(F)(F)C(F)(F)F` [Perfluorobutyric acid], the LC retention time is 5.1 min.

For `COC(=O)C1C2CC3c4[nH]c5cc(OC)ccc5c4CCN3CC2CC(OC(=O)c2cc(OC)c(OC)c(OC)c2)C1OC` (stereo unspecified) [Reserpine], the LC retention time was 8.3 min.

Consider `COCC(C)N(C(=O)CCl)c1c(C)csc1C` (stereo unspecified) [Dimethenamid-P], for which the LC retention time is 10 min.

With `COP(=S)(OC)Oc1nc(Cl)c(Cl)cc1Cl` [Chlorpyrifos-methyl], the LC retention time was 14 min.

On to `O=P1(N(CCCl)CCCl)NCCCO1` (stereo unspecified) [Cyclophosphamide], for which the LC retention time was 6.3 min.

For `Nc1nnc(-c2cccc(Cl)c2Cl)c(N)n1` [Lamotrigine], the LC retention time was 5.4 min.

For `CCC1OC(=O)C(C)C(OC2CC(C)(OC)C(O)C(C)O2)C(C)C(OC2OC(C)CC(N(C)C)C2O)C(C)(O)CC(C)CN(C)C(C)C(O)C1(C)O` (stereo unspecified) [Azithromycin], the LC retention time was 5.9 min.

`CC(NC(C)(C)C)C(=O)c1cccc(Cl)c1` (stereo unspecified) [Bupropion]: the LC retention time was 5.8 min.

For `CCOC(=O)C1=CC(OC(CC)CC)C(NC(C)=O)C(N)C1` (stereo unspecified) [Oseltamivir], the LC retention time was 7 min.

Consider `CCC(C)C(=O)OC1CC(O)C=C2C=CC(C)C(CCC(O)CC(O)CC(=O)O)C21` (stereo unspecified) [Pravastatin], for which the LC retention time was 9.2 min.

On to `COC=C(C(=O)OC)c1ccccc1Oc1cc(Oc2ccccc2C#N)ncn1` [Azoxystrobin], for which the LC retention time is 9.9 min.

Regarding `CCC(C(N)=O)N1CCCC1=O` (stereo unspecified) [Levetiracetam], the LC retention time is 3 min.

On to `COc1cc(Cc2cnc(N)nc2N)cc(OC)c1OC` [Trimethoprim], for which the LC retention time was 3.8 min.

As to `CC1CC2C(C(O)CC3(C)C2CCC3(O)C(=O)CO)C2(C)C=CC(=O)C=C12` (stereo unspecified) [Methylprednisolone], the LC retention time was 9.2 min.

For `CC(C)N(C(=O)CS(=O)(=O)O)c1ccc(F)cc1` [Flufenacet ESA], the LC retention time was 6 min.

As to `NC(=O)N=C1SCCN1Cc1ccc(Cl)nc1` [Thiacloprid-amide], the LC retention time was 4.6 min.

`Cc1ccc(C(C)NC(=O)C(NC(=O)OC(C)C)C(C)C)cc1` (stereo unspecified) [Iprovalicarb]: the LC retention time was 11.4 min.

As for `CC1COC(Cn2cncn2)(c2ccc(Oc3ccc(Cl)cc3)cc2Cl)O1` (stereo unspecified) [Difenoconazole], the LC retention time was 14.1 min.

For `O=C(NC(=O)c1c(F)cccc1F)Nc1cc(Cl)c(F)c(Cl)c1F` [Teflubenzuron], the LC retention time was 16.1 min.

As to `Fc1ccc(C2(Cn3cncn3)OC2c2ccccc2Cl)cc1` (stereo unspecified) [Epoxiconazole], the LC retention time is 11.7 min.
